From patent US6365753B1, “Phthalimides and herbicide containing the same as active component” (Mitsubishi Chemical Corporation, priority 1998, dated 2002) come the findings set out here.

For one data set, the system named is Scirpus juncoides. The data set can be described thus: Submerged treatment test. Note: ranges in brackets are in %. It is filed as in vivo. Conditions: 10 g/a active ingredient, treated 5th day from sowing, examined on the 2.8th day from treatment, herbicidal index. Here is the method: (§1) Alluvial soil from a paddy field was put in a resin-made pot having an area of 200 cm^2. After fertilization, an adequate amount of water was added, and the soil was puddled and leveled. Seeds of Echinochloa crus-galli, Monochoria vaginalis, Rotala indica and Scirpus juncoides were sowed within a layer 0.5 cm below the surface of the soil. Water was poured onto the soil to keep a water depth of 3.5 cm.
(§2) On the 5th day from the sowing, the emulsifiable concentrate containing the compound of the invention as an active ingredient which was prepared in Formulation Example 3 was diluted with water. A prescribed amount of the diluted composition was dropped to the water so as to give 10 g of the active ingredient per are.
(§3) Cultivation was continued in a greenhouse, and the herbicidal effect was examined on the […] from the treatment. The results obtained are shown in Table 4 (the compound numbers in Table 4 correspond to those in Tables 1 and 2). The herbicidal effect was evaluated in terms of herbicidal index based on Y(%) obtained from equation:
(§4) y=[1−(Weight of weeds above the ground in a treated pot)/(Weight of weeds above the ground in a non-treated pot)]×100 (%)
Turning to `O=C(OC1CCCC1)C(Cl)Cc1cc(N2C(=O)c3ccccc3C2=O)c(F)cc1Cl` (centres unmarked) [Compound 9], the “Herbicidal Effect Scirpus juncoides” value is given as 5 (91-100).

The next data set concerns Monochoria vaginalis. The data set can be described thus: Submerged treatment test. Note: ranges in brackets are in %. It is filed as in vivo. Conditions: 10 g/a active ingredient, treated 5th day from sowing, examined on the 2.8th day from treatment, herbicidal index. Here is the method: as §1, §2, §3, §4
For `O=C(OC1CCCC1)C(Cl)Cc1cc(N2C(=O)c3ccccc3C2=O)c(F)cc1Cl` (centres unmarked) [Compound 9], the “Herbicidal Effect Monochoria vaginalis” value was 5 (91-100).

In a further data set the test system is Rotala indica. The data set can be described thus: Submerged treatment test. Note: ranges in brackets are in %. Conditions: 10 g/a active ingredient, treated 5th day from sowing, examined on the 2.8th day from treatment, herbicidal index. It is filed as in vivo. The procedure:
as §1, §2, §3, §4
For the molecule `O=C(OC1CCCC1)C(Cl)Cc1cc(N2C(=O)c3ccccc3C2=O)c(F)cc1Cl` (centres unmarked) [Compound 9], the “Herbicidal Effect Rotala indica” value is listed as 5 (91-100).

The next data set deals with Echinochloa crus-galli. In words: Submerged treatment test. Note: ranges in brackets are in %. The class given is in vivo. Conditions: 10 g/a active ingredient, treated 5th day from sowing, examined on the 2.8th day from treatment, herbicidal index. The procedure: as §1, §2, §3, §4
Regarding `O=C(OC1CCCC1)C(Cl)Cc1cc(N2C(=O)c3ccccc3C2=O)c(F)cc1Cl` (centres unmarked) [Compound 9], the “Herbicidal Effect Echinochloa crus-galli” value is listed as 5 (91-100).

Another data set concerns Galium spurium. In words: Foliar treatment test (3) post emergence application. The class given is in vivo. Particulars: 3.0 to 4.0-leaf stage, 12.5 ga.i./ha, 0.125% X-77, 21st day, index. Here is the method:
(§5) Volcanic ash soil from a field was put in a resin-made pot having an area of 200 cm^2. After fertilization, the seeds of Galim spurium, Brassica juncea, and wheat were cast on the soil and covered with the soil uniformly. Cultivation was continued in a greenhouse until the plants reached to the 3.0 to 4.0-leaf stage.
(§6) The emulsifiable concentrate comprising compound No. 5 of the present invention, comparative compound (B) or comparative compound (C) as an active ingredient which was prepared in accordance with Formulation Example 3 was diluted with water containing 0.125% of a spreading agent X-77 (trade name, Valent USA Co.) so that a spray of 250 L/ha might give a prescribed amount of the active ingredient. The diluted composition was uniformly sprayed to the Galium spurium plant, the Brassica juncea plant, and the wheat plant by means of a small-sized power pressure spray.
(§7) Thereafter, cultivation was continued in the greenhouse, and the herbicidal effect and the injury to the crop were examined on the 21st day from the treatment. The herbicidal effect and the injury to the crop were evaluated on the same criteria as in Test Example 4.
As to `CCO/N=C(/COc1cc(N2C(=O)c3ccccc3C2=O)c(F)cc1Cl)C(=O)OCC` [Comparative Compound (B)], the “Herbicidal Effect Galium spurium” value is given as 9 (90-99).

On to `CCOC(=O)C(Cl)Cc1cc(-n2nc(C)n(C(F)F)c2=O)c(F)cc1Cl` (centres unmarked) [Comparative Compound (C), Carfentrazone-ethyl], for which the “Herbicidal Effect Galium spurium” value is listed as 10 (100).

Still in this data set, the particulars now being: 3.0 to 4.0-leaf stage, 25.0 ga.i./ha, 0.125% X-77, 21st day, index.
`CCO/N=C(/COc1cc(N2C(=O)c3ccccc3C2=O)c(F)cc1Cl)C(=O)OCC` [Comparative Compound (B)]: the “Herbicidal Effect Galium spurium” value is recorded as 9 (90-99).

As to `CCOC(=O)C(Cl)Cc1cc(-n2nc(C)n(C(F)F)c2=O)c(F)cc1Cl` (centres unmarked) [Comparative Compound (C), Carfentrazone-ethyl], the “Herbicidal Effect Galium spurium” value is given as 10 (100).

Still in this data set, the particulars now being: 3.0 to 4.0-leaf stage, 50.0 ga.i./ha, 0.125% X-77, 21st day, index.
In the case of `CCO/N=C(/COc1cc(N2C(=O)c3ccccc3C2=O)c(F)cc1Cl)C(=O)OCC` [Comparative Compound (B)], the “Herbicidal Effect Galium spurium” value is recorded as 10 (100).

In the case of `CCOC(=O)C(Cl)Cc1cc(-n2nc(C)n(C(F)F)c2=O)c(F)cc1Cl` (centres unmarked) [Comparative Compound (C), Carfentrazone-ethyl], the “Herbicidal Effect Galium spurium” value is reported as 10 (100).

The next data set deals with Brassica juncea. The data set is described as above. Particulars: 3.0 to 4.0-leaf stage, 12.5 ga.i./ha, 0.125% X-77, 21st day, index. The class given is in vivo. Here is the method:
as §5, §6, §7
With `CCO/N=C(/COc1cc(N2C(=O)c3ccccc3C2=O)c(F)cc1Cl)C(=O)OCC` [Comparative Compound (B)], the “Herbicidal Effect Brassica juncea” value is 9 (90-99).

Take `CCOC(=O)C(Cl)Cc1cc(-n2nc(C)n(C(F)F)c2=O)c(F)cc1Cl` (centres unmarked) [Comparative Compound (C), Carfentrazone-ethyl]: the “Herbicidal Effect Brassica juncea” value was 9 (90-99).

Still in this data set, the particulars now being: 3.0 to 4.0-leaf stage, 25.0 ga.i./ha, 0.125% X-77, 21st day, index.
For the molecule `CCO/N=C(/COc1cc(N2C(=O)c3ccccc3C2=O)c(F)cc1Cl)C(=O)OCC` [Comparative Compound (B)], the “Herbicidal Effect Brassica juncea” value is on record as 10 (100).

With `CCOC(=O)C(Cl)Cc1cc(-n2nc(C)n(C(F)F)c2=O)c(F)cc1Cl` (centres unmarked) [Comparative Compound (C), Carfentrazone-ethyl], the “Herbicidal Effect Brassica juncea” value was 10 (100).

The data set is the same for the next values; noted with them: 3.0 to 4.0-leaf stage, 50.0 ga.i./ha, 0.125% X-77, 21st day, index.
As for `CCO/N=C(/COc1cc(N2C(=O)c3ccccc3C2=O)c(F)cc1Cl)C(=O)OCC` [Comparative Compound (B)], the “Herbicidal Effect Brassica juncea” value is given as 10 (100).

In the case of `CCOC(=O)C(Cl)Cc1cc(-n2nc(C)n(C(F)F)c2=O)c(F)cc1Cl` (centres unmarked) [Comparative Compound (C), Carfentrazone-ethyl], the “Herbicidal Effect Brassica juncea” value is 10 (100).

The subject of a further data set is wheat. The data set can be described thus: Foliar treatment test (3) post emergence application, crop injury. The class given is in vivo. Particulars: 3.0 to 4.0-leaf stage, 12.5 ga.i./ha, 0.125% X-77, 21st day, index. The procedure: as §5, §6, §7
In the case of `CCO/N=C(/COc1cc(N2C(=O)c3ccccc3C2=O)c(F)cc1Cl)C(=O)OCC` [Comparative Compound (B)], the “Crop Injury Wheat” value is 3 (20-29).

For the molecule `CCOC(=O)C(Cl)Cc1cc(-n2nc(C)n(C(F)F)c2=O)c(F)cc1Cl` (centres unmarked) [Comparative Compound (C), Carfentrazone-ethyl], the “Crop Injury Wheat” value is recorded as 3 (20-29).

The data set is the same for the next values; noted with them: 3.0 to 4.0-leaf stage, 25.0 ga.i./ha, 0.125% X-77, 21st day, index.
`CCO/N=C(/COc1cc(N2C(=O)c3ccccc3C2=O)c(F)cc1Cl)C(=O)OCC` [Comparative Compound (B)]: the “Crop Injury Wheat” value is 3 (20-29).

For `CCOC(=O)C(Cl)Cc1cc(-n2nc(C)n(C(F)F)c2=O)c(F)cc1Cl` (centres unmarked) [Comparative Compound (C), Carfentrazone-ethyl], the “Crop Injury Wheat” value is 4 (30-39).

The same data set, now with this note: 3.0 to 4.0-leaf stage, 50.0 ga.i./ha, 0.125% X-77, 21st day, index.
Turning to `CCO/N=C(/COc1cc(N2C(=O)c3ccccc3C2=O)c(F)cc1Cl)C(=O)OCC` [Comparative Compound (B)], the “Crop Injury Wheat” value is reported as 4 (30-39).

As for `CCOC(=O)C(Cl)Cc1cc(-n2nc(C)n(C(F)F)c2=O)c(F)cc1Cl` (centres unmarked) [Comparative Compound (C), Carfentrazone-ethyl], the “Crop Injury Wheat” value is reported as 6 (60-69).

A further data set deals with Alopeculus aequalis. The data set can be described thus: Foliar treatment test (1) post-emergence application. Note: ranges in brackets are in %. Conditions: foliar treatment post-emergence at 1.0- to 2.0-leaf stage, 10 g/a active ingredient, 21st day from treatment; herbicidal index. The class given is in vivo. Here is the method: (§8) Volcanic ash soil from a field was put in a resin-made pot having an area of 200 cm^2. After fertilization, the seeds of Brassica juncea, Ipomoea purpurea, Echinochloa crus-galli and Alopeculus aequalis were cast on the soil and uniformly covered with the soil.
(§9) Cultivation was continued in a greenhouse, and when the weeds reached the 1.0- to 2.0-leaf stage, a prescribed amount of the emulsifiable concentrate comprising the compound of the invention as an active ingredient which was prepared in Formulation Example 3 as diluted with water was sprayed uniformly to the weeds by means of a small-sized power pressure spray to give 10 g of the active ingredient per are.
(§10) Thereafter, cultivation was further continued in the greenhouse, and the herbicidal effect was examined on the 21st day from the treatment. The results obtained are shown in Table 6 (the compound numbers in Table 6 correspond to those in Tables 1 and 2). The herbicidal effect was evaluated based on the same criteria as in Test Example 1.
For the molecule `O=C(OC1CCCC1)C(Cl)Cc1cc(N2C(=O)c3ccccc3C2=O)c(F)cc1Cl` (centres unmarked) [Compound 9], the “Herbicidal Effect Alopeculus sequalis” value is 1 (6-30).

For another data set, the system named is Ipomoea purpurea. Described as above. The class given is in vivo. Particulars: foliar treatment post-emergence at 1.0- to 2.0-leaf stage, 10 g/a active ingredient, 21st day from treatment; herbicidal index. Here is the method: as §8, §9, §10
`O=C(OC1CCCC1)C(Cl)Cc1cc(N2C(=O)c3ccccc3C2=O)c(F)cc1Cl` (centres unmarked) [Compound 9]: the “Herbicidal Effect Ipompoea-purpurea” value is 5 (91-100).

The next data set has as its system Brassica juncea. Described as above. Conditions: foliar treatment post-emergence at 1.0- to 2.0-leaf stage, 10 g/a active ingredient, 21st day from treatment; herbicidal index. It is filed as in vivo. The procedure: as §8, §9, §10
Consider `O=C(OC1CCCC1)C(Cl)Cc1cc(N2C(=O)c3ccccc3C2=O)c(F)cc1Cl` (centres unmarked) [Compound 9], for which the “Herbicidal Effect Brassica juncea” value was 5 (91-100).

In a further data set the test system is Echinochloa crus-galli. The data set is described as above. It is filed as in vivo. Conditions: foliar treatment post-emergence at 1.0- to 2.0-leaf stage, 10 g/a active ingredient, 21st day from treatment; herbicidal index. Here is the method:
as §8, §9, §10
Consider `O=C(OC1CCCC1)C(Cl)Cc1cc(N2C(=O)c3ccccc3C2=O)c(F)cc1Cl` (centres unmarked) [Compound 9], for which the “Herbicidal Effect Echinochloa crus-galli” value is listed as 2 (31-50).
